Several values for one entry are separate records, joined by “and”; a condition that tells them apart may be missing. Equal values may be shown once. Entries after “also recorded” stand apart in the source; their conditions may differ. Read-outs that look alike come from different tables or passages of the source.
How the values were obtained:
[1] = human, in vivo, po, cited from earlier work
EBOV [2] = conditions: mouse, in vivo, cited from earlier work
EBOV/Mak [3] = conditions: cited from earlier work; for IC50: read-out: IC50 (Huh7)
EBOV [4] = assay: microbe, parasite or virus in culture; type: cell-based, Ebola virus; conditions: Zaire ebolavirus, read-out: IC50 (average) (μM)
VSV-EBOV-GPΔ-Luc = type: cell-based
[5] = rat, in vivo; cited from earlier work
EBOV [6] = conditions: read-out: IC50 (HepG2); cited from earlier work
[7] = mouse, in vivo
EBOV [8] = test system: EBOV; parameters: species or system Ebola virus
EBOV [9] = test system: EBOV; parameters: species or system mice; conditions: mouse, in vivo
in vivo [10] = conditions: mouse, po, 10 mg/kg
[11] = C57BL/6, mouse, in vivo, po; for Cmax obtained relative to prediction, fold higher: female
in vivo [12] = conditions: female, C57BL/6, mouse, po
EBOV/Mak-C05 = conditions: rhesus monkey, in vivo; cited from earlier work
[13] = mouse, in vivo; cited from earlier work
EBOV/Mak [14] = type: cell-based, Ebola virus
MARV = conditions: mouse, in vivo, ip, 12 mg/kg; cited from earlier work

Compound: O=C1CCc2ccc(OCCCCN3CCN(c4cccc(Cl)c4Cl)CC3)cc2N1 [Aripiprazole]
- Cmax ([1]; 30 mg): 1010 nM
- Survival (%) (EBOV [2]; ip, 20 mg/kg): 10 ^1%
- somnolence in treated mice (EBOV [2]; ip, 20 mg/kg): extremely somnolent

Compound: Cc1cccc(/C=N/Nc2cc(N3CCOCC3)nc(OCCc3ccccn3)n2)c1 [Apilimod]
- Cmax ([1]; 70 mg): 260 nM
- IC50 (EBOV/Mak [3]): 0.17 µM
- IC50 (EBOV [4]): 0.17 µM

Compound: CN(C)CCOc1ccc(/C(=C(/CCCl)c2ccccc2)c2ccccc2)cc1 [Toremifene]
- inhibitory activity over time (stability in V8) (VSV-EBOV-GPΔ-Luc): began to lose activity after ~1 week
- Oral LD50 [5]: 3000 mg/kg
- IC50 (EBOV [6]): 0.03 µM
- tolerability [7]: well tolerated
- mi (hill coefficient of drug i applied in combination) (EBOV [8]): 1.628
- Cmax ([1]; 60 mg): 1970 nM
- approximated protection of infected mice (EBOV [9]): ~ 50%
- estimated survival (EBOV [9]): ~ 50%
- predicted survival (EBOV [9]): ~ 7%
- Cmax (in vivo [10]): 160 nM
- Cmax [11]: ~4400 nM
- Cmax (in vivo [12]; 100 mg/kg): 498 ng/mL
- MRT (in vivo [12]; 100 mg/kg): 6 h
- half-life (in vivo [12]; 100 mg/kg): 0.5 h
- Cmax (in vivo [12]; 200 mg/kg): 1300 ng/mL
- MRT (in vivo [12]; 200 mg/kg): 16 h
- half-life (in vivo [12]; 200 mg/kg): 0.2 h
- Survival (%) (EBOV [2]; ip, 60 mg/kg): 50%
- Hill coefficient (EBOV/Mak [3]): 3.057
- IC50 (EBOV/Mak [3]): 3.64 µM
- IC50 (EBOV [4]): 1.8 µM

Compound: CC(=O)c1ccc2c(c1)N(CCCN1CCC(CCO)CC1)c1ccccc1S2 [Piperacetazine]
- IC50 (EBOV [6]): 3.3 µM
- IC50 (EBOV/Mak [3]): 7.58 µM
- IC50 (EBOV [4]): 5.44 µM

Compound: CN[C@H]1CC[C@@H](c2ccc(Cl)c(Cl)c2)c2ccccc21 [Sertraline]
- tolerability [7]: well tolerated
- mi (hill coefficient of drug i applied in combination) (EBOV [8]): 2.736 and 1.996
- Cmax ([1]; 200 mg): 540 nM
- protection (EBOV/Mak-C05): not effective; also recorded: did not protect macaques
- predicted survival (EBOV [9]): ~ 35%
- Cmax (in vivo [10]): 430 nM
- Cmax [11]: ~1200 nM
- Cmax obtained relative to prediction, fold higher [11]: ~ 1.2 fold
- MRT (in vivo [12]; 30 mg/kg): 11 h
- half-life (in vivo [12]; 30 mg/kg): 1 h
- MRT (in vivo [12]; 60 mg/kg): 5 h
- half-life (in vivo [12]; 60 mg/kg): 1 h
- Survival (%) (EBOV [2]; ip, 10 mg/kg): 70%
- Hill coefficient (EBOV/Mak [3]): 1.628
- Oral LD50 [13]: 336 mg/kg

Compound: CCN(CC)CCOc1ccc(C(=C(Cl)c2ccccc2)c2ccccc2)cc1 [Clomiphene]
- Cmax ([1]; 50 mg): 50 nM
- protection (EBOV [2]; ip, 12 mg/kg): 60% and 40%
- protection (EBOV [2]; po, 21 mg/kg): no mice were protected

Compound: CC[C@H]1OC(=O)[C@H](C)[C@@H](O[C@H]2C[C@@](C)(OC)[C@@H](O)[C@H](C)O2)[C@H](C)[C@@H](O[C@@H]2O[C@H](C)C[C@H](N(C)C)[C@H]2O)[C@](C)(O)C[C@@H](C)CN(C)[C@H](C)[C@@H](O)[C@]1(C)O [Azithromycin]
- Cmax ([1]; 500 mg): 640 nM
- Survival (%) (EBOV [2]; ip, 100 mg/kg): 10, 30, 60 ^2%
- IC50 (EBOV/Mak [3]): 10.8 µM
- IC50 (EBOV [4]): 10.8 µM

Compound: CC(C)COCC(CN(Cc1ccccc1)c1ccccc1)N1CCCC1 (stereo not drawn) [Bepridil]
- inhibitory activity over time (stability in V8) (VSV-EBOV-GPΔ-Luc): maintained inhibitory activity over 15 days
- possible loss of potency (EBOV/Mak [14]): < 2 fold
- IC50 (EBOV [6]): 3.21 µM
- tolerability [7]: well tolerated
- mi (hill coefficient of drug i applied in combination) (EBOV [8]): 4.043
- Cmax ([1]; 400 mg): 2430 nM
- Survival (%) (MARV): 90 ^4%
- mice protected (MARV): 80%
- Cmax [11]: ~3000 nM
- Cmax obtained relative to prediction, fold higher [11]: ~ 1.8 fold
- MRT (in vivo [12]; 150 mg/kg): 6 h
- half-life (in vivo [12]; 150 mg/kg): 0.5 h
- MRT (in vivo [12]; 500 mg/kg): 9 h
- half-life (in vivo [12]; 500 mg/kg): 0.5 h
- Survival (%) (EBOV [2]; ip, 12 mg/kg): 100% and 100 ^3%
- survival (EBOV [2]; ip, 12 mg/kg): 90-100%
- Hill coefficient (EBOV/Mak [3]): 4.859
- IC50 (EBOV/Mak [3]): 5.86 µM
- Oral LD50 [13]: 2069 mg/kg
- IC50 (EBOV [4]): ~4 µM

Source: article PMC7998926 (Microorganisms, 2021)
